Assay [1] concerns Mycobacterium tuberculosis H37Rv. Description: Inhibition of Mycobacterium tuberculosis H37Rv chorismate mutase expressed in Escherichia coli BL21 (DE3) assessed as conversion of chorismate to prephenate at 50 uM after 5 mins by spectrophotometry.
Assay [2] is described as follows: (§1) Inhibition of Mycobacterium tuberculosis H37Rv chorismate mutase expressed in Escherichia coli BL21 (DE3) assessed as conversion of chorismate to prephenate after 5 mins by spectrophotometry.
Assay [3] relates to Mycobacterium tuberculosis H37Rv. The assay is described as §1.

Our source for the inhibition and IC50 values is ChEMBL document CHEMBL1914370, “A Pd-mediated new strategy to functionalized 2-aminochromenes: their in vitro evaluation as potential anti tuberculosis agents” (Bioorg Med Chem Lett, 2011).

For orientation: inhibition means how much of the control response was suppressed. For orientation: IC50 means the concentration that inhibits the measured activity by half.

On to `CCCCC#Cc1ccccc1C1C(C#N)=C(N)Oc2c1ccc1ccccc21` (centres undefined), for which the inhibition in assay [1] is 57%. In the case of `N#CC1=C(N)Oc2c(ccc3ccccc23)C1c1cccc(C#CC2(O)CCCCC2)c1` (centres undefined), the inhibition in assay [1] was 28%. In the case of `N#CC1=C(N)Oc2ccc3ccccc3c2C1c1cccc(C#CCCO)c1` (centres undefined), the inhibition in assay [1] came to 69%. Turning to `N#CC1=C(N)Oc2ccc3ccccc3c2C1c1cccc(C#CCCCO)c1` (centres undefined), the concentration for half-maximal inhibition (IC50) in assay [2] came out at 15.6 µM. The figures for the inhibition entry in assay [3] and in assay [1] were “Dose-dependent effect” and 70%, respectively.

`N#CC1=C(N)Oc2c(ccc3ccccc23)C1c1ccccc1C#CC1(O)CCCCC1` (centres undefined): the inhibition in assay [1] turned out to be 24%. `CC(C)(C)OC(=O)/C=C/c1cccc(C2C(C#N)=C(N)Oc3ccc4ccccc4c32)c1` (centres undefined): in assay [1], the inhibition was 64%.

Take `N#CC1=C(N)Oc2c(ccc3ccccc23)C1c1cccc(C#CCCCO)c1` (centres undefined): in assay [1], the inhibition was determined as 32%. Same read-out and setting: the same measure for `CC(=O)/C=C/c1cccc(C2C(C#N)=C(N)Oc3ccc4ccccc4c32)c1` (centres undefined): 10%; for `CCCCCCC#Cc1ccccc1C1C(C#N)=C(N)Oc2c1ccc1ccccc21` (centres undefined): 55%; for `COC(=O)/C=C/c1cccc(C2C(C#N)=C(N)Oc3ccc4ccccc4c32)c1` (centres undefined): 33%.

For the compound `CCOC(=O)/C=C/c1cccc(C2C(C#N)=C(N)Oc3ccc4ccccc4c32)c1` (centres undefined), in assay [1], the inhibition was found to be 30%. As to `CCCCCCCCC#Cc1ccccc1C1C(C#N)=C(N)Oc2c1ccc1ccccc21` (centres undefined), in assay [1], the inhibition worked out at 50%.
